This note sets out measurements from patent US7534871B2, “Preparation and use of carbohydrate-based bicyclic ring structures with antimicrobial and cytostatic activity” (Kemin Pharma B.V.B.A., priority 2004, dated 2009).

Converted amounts (≈) assume the structure as drawn.

The subject of the first test is VRE ATCC700221. Kind of test: Anti-bacterial activity, Bioscreen C growth curve: VRE. The class given is cell-based, vancomycin-resistant Enterococcus (VRE). The following applies: Enterococcus, 35° C., 16 hours, negative control = 100, read-out: % of growth at 25 PPM compared to the negative control, VRE ATCC700221. As to the method: (§1) For the determination of the anti-bacterial and anti-fungal activity the Bioscreen C Analyser Labsystems, Finland, was used. This is an automated reader-incubator. It measures growth continuously by vertical photometry (optical density), processes the data and provides a print out of the results. The area under the growth curve is automatically determined via the Biolink software.
(§2) The inoculum size of the bacteria is standardized to approximately 5×10^5 CFU/ml.
(§3) For bacteria, the 100-honey-well plates containing test chemical, Mueller-Hinton broth and inoculum (=sample) are incubated at 35° C. for 16 hours. Also wells without inoculum are incubated (=blanco). Yeasts are incubated 35° C. for 24 hours in RPMI 1640+MOPS buffer at 165 mM. Moulds also in RPMI 1640+MOPS buffer at 165 mM are incubated 25° C. for 5 days. All micro-organisms are screened against a known concentration of the reference antibiotics or antimycotics such as vancomycin, penicillin G, gentamicin or amphotericin B. The growth curve and the area under the growth curve can be determined using the Biolink software; this is illustrated in FIG. 1.
(§4) The area of the blanco is subtracted from the area of the sample, this number (delta) gives us an indication of the biological activity of the molecules tested and can be expressed as a % of growth at a specific dose compared to a negative control that has a value of 100, illustrated in FIG. 2. Screening of each dose of a specific compound is repeated 5 times. The dose used for all new molecules in all tests is 25 PPM or 25 μg/ml.
(§5) In Table 4 the results of the anti-bacterial activity is given for the new molecules. The micro-organisms used are Staphylococcus aureus, MRSA, VRE, Enterococcus faecalis, Salmonella typhimurium and Pseudomonas aeruginosa.
Take `CO[C@@H]1[C@@H](OC)[C@H](c2ccccc2)O[C@@H]2CO[C@@H](c3ccccc3)O[C@@H]12` [KPE00001015]: the activity at 25 ppm was 67.8%.

In another test the test system is P. aeruginosa ATCC27853 LMG16217. Kind of test: Anti-bacterial activity, Bioscreen C growth curve: P. aeruginosa. The test is classed as cell-based, Pseudomonas aeruginosa. The following applies: Pseudomonas aeruginosa; 25 PPM; 35° C., 16 hours; negative control = 100; read-out: % of growth at 25 PPM compared to the negative control, P. aeruginosa ATCC27853 LMG16217. As to the method:
as §1, §2, §3, §4, §5
As for `CO[C@@H]1[C@@H](OC)[C@H](c2ccccc2)O[C@@H]2CO[C@@H](c3ccccc3)O[C@@H]12` [KPE00001015], the activity at 25 ppm was 90.4%.

A further test has as its system HIV-2 (ROD). Kind of test: Anti-viral activity: HIV-2-induced cytopathicity in human CEM cell cultures. The test is classed as cell-based. The following applies: Human immunodeficiency virus 2, CCRF-CEM; concentration required to inhibit HIV-induced cytopathicity in human CEM cell cultures by 50%. For orientation: Protection from cytopathic effect is a common read-out in antiviral testing.
The compound `CO[C@@H]1[C@@H](OC)[C@H](c2ccccc2)O[C@@H]2CO[C@@H](c3ccccc3)O[C@@H]12` [KPE00001015] came in with an EC50 greater than 4 µg/mL.

Another test deals with VZV YS. Kind of test: Anti-viral activity: VZV-induced plaque formation in HEL cell cultures, YS strain. The following applies: Human alphaherpesvirus 3, VZV-induced plaque formation in human embryonic lung HEL cell cultures, 50%. The class given is cell-based, varicella zoster virus (VZV).
`CO[C@@H]1[C@@H](OC)[C@H](c2ccccc2)O[C@@H]2CO[C@@H](c3ccccc3)O[C@@H]12` [KPE00001015] showed an EC50 of 14 µg/mL (≈ 39.3 µM).

A further test relates to E. faecalis ATTC29212 LMG 8222. Kind of test: Anti-bacterial activity, Bioscreen C growth curve: E. faecalis. The test is classed as cell-based. The following applies: Enterococcus faecalis, LMG8222, 35° C., 16 hours, negative control = 100, read-out: % of growth at 25 PPM compared to the negative control, E. faecalis ATTC29212 LMG 8222. The protocol:
as §1, §2, §3, §4, §5
With `CO[C@@H]1[C@@H](OC)[C@H](c2ccccc2)O[C@@H]2CO[C@@H](c3ccccc3)O[C@@H]12` [KPE00001015], the activity at 25 ppm is 86%.

For the next test, the system named is VZV OKA. Kind of test: microbe, parasite or virus in culture. The class given is cell-based, varicella zoster virus (VZV). The following applies: Human alphaherpesvirus 3, HEL, read-out: EC50 VZV (HEL) OKA.
For the compound `CO[C@@H]1[C@@H](OC)[C@H](c2ccccc2)O[C@@H]2CO[C@@H](c3ccccc3)O[C@@H]12` [KPE00001015], the EC50 came to 13 µg/mL (≈ 36.5 µM).

Another test concerns human T-lymphocyte cells (Molt4/C8). Kind of test: Cytostatic activity: inhibition of proliferation of Molt4/C8 cells. The test is classed as cell-based. The following applies: Molt4/C8, 50% inhibitory concentration, cell proliferation, read-out: IC50 Molt4/C8. As to the method:
(§6) The compounds were tested for anti-tumor activity via the inhibitory effects on the proliferation of murine leukemia cells (L1210/0), murine mammary carcinoma cells (FM3A), human T-lymphocyte cells (Molt4/C8, CEM/0) and human cervix carcinoma cells (HeLa).
Consider `CO[C@@H]1[C@@H](OC)[C@H](c2ccccc2)O[C@@H]2CO[C@@H](c3ccccc3)O[C@@H]12` [KPE00001015], for which the IC50 came to 62 ± 3 µg/mL (≈ 174 µM).

Another test has as its system HSV-1 (KOS). Kind of test: Anti-viral activity: HSV-1-induced cytopathicity in human embryo fibroblast E6SM cell cultures. The class given is cell-based, herpes simplex virus (HSV). The following applies: Human alphaherpesvirus 1, 50%.
`CO[C@@H]1[C@@H](OC)[C@H](c2ccccc2)O[C@@H]2CO[C@@H](c3ccccc3)O[C@@H]12` [KPE00001015] showed an EC50 greater than 80 µg/mL.

For a further test, the system named is murine mammary carcinoma cells (FM3A). As to the kind of experiment: Cytostatic activity: inhibition of proliferation of FM3A cells. The test is classed as cell-based. The following applies: Mus musculus, 50% inhibitory concentration, cell proliferation, read-out: IC50 FM3A/0. As to the method: as §6
`CO[C@@H]1[C@@H](OC)[C@H](c2ccccc2)O[C@@H]2CO[C@@H](c3ccccc3)O[C@@H]12` [KPE00001015]: the IC50 was greater than 200 µg/mL.

In another test the test system is VV. Kind of test: microbe, parasite or virus in culture. The class given is cell-based. The following applies: Orthopoxvirus vaccinia, E6SM, read-out: EC50 VV (E6SM).
Turning to `CO[C@@H]1[C@@H](OC)[C@H](c2ccccc2)O[C@@H]2CO[C@@H](c3ccccc3)O[C@@H]12` [KPE00001015], the EC50 was greater than 80 µg/mL.

The test system of another test is HIV-1 (IIIB). As to the kind of experiment: microbe, parasite or virus in culture. The test is classed as cell-based. The following applies: Human immunodeficiency virus 1, IIIB, CCRF-CEM; concentration required to inhibit HIV-induced cytopathicity in human CEM cell cultures by 50%.
Turning to `CO[C@@H]1[C@@H](OC)[C@H](c2ccccc2)O[C@@H]2CO[C@@H](c3ccccc3)O[C@@H]12` [KPE00001015], the EC50 is greater than 4 µg/mL.

A further test has as its system MRSA ATCC33591. Kind of test: Anti-bacterial activity, Bioscreen C growth curve: MRSA. The class given is cell-based, methicillin-resistant Staphylococcus aureus (MRSA). The following applies: Staphylococcus aureus, ATCC 33591 / LMG10147 / MRSA; 25 PPM; 35° C., 16 hours; negative control = 100; read-out: % of growth at 25 PPM compared to the negative control, MRSA ATCC33591 LMG10147. As to the method:
as §1, §2, §3, §4, §5
For `CO[C@@H]1[C@@H](OC)[C@H](c2ccccc2)O[C@@H]2CO[C@@H](c3ccccc3)O[C@@H]12` [KPE00001015], the activity at 25 ppm stood at 117%.

The next test has as its system S. typhimurium ATTC700408. Kind of test: Anti-bacterial activity, Bioscreen C growth curve: S. typhimurium. The test is classed as cell-based. The following applies: Salmonella enterica, LMG16217 / TYPHIMURIUM, 35° C., 16 hours, negative control = 100, read-out: % of growth at 25 PPM compared to the negative control, S. typhimurium ATTC700408 LMG16217. The protocol: as §1, §2, §3, §4, §5
Regarding `CO[C@@H]1[C@@H](OC)[C@H](c2ccccc2)O[C@@H]2CO[C@@H](c3ccccc3)O[C@@H]12` [KPE00001015], the activity at 25 ppm was determined as 87.2%.

A further test concerns S. aureus ATTC29213 LMG10147. Kind of test: Anti-bacterial activity, Bioscreen C growth curve: S. aureus. The class given is cell-based. The following applies: Staphylococcus aureus, 35° C., 16 hours, negative control = 100, read-out: % of growth at 25 PPM compared to the negative control, S. aureus ATTC29213 LMG10147. As to the method:
as §1, §2, §3, §4, §5
Consider `CO[C@@H]1[C@@H](OC)[C@H](c2ccccc2)O[C@@H]2CO[C@@H](c3ccccc3)O[C@@H]12` [KPE00001015], for which the activity at 25 ppm was 104%.

Another test has as its system human cervix carcinoma cells (HeLa). As to the kind of experiment: Cytostatic activity: inhibition of proliferation of HeLa cells. The following applies: 50% inhibitory concentration, cell proliferation. The test is classed as cell-based. As to the method: as §6
Regarding `CO[C@@H]1[C@@H](OC)[C@H](c2ccccc2)O[C@@H]2CO[C@@H](c3ccccc3)O[C@@H]12` [KPE00001015], the IC50 amounted to 104 ± 65 µg/mL (≈ 292 µM).

One may read the EC50 as the concentration at which the effect is half-maximal.
